Data as given in ChEMBL document CHEMBL5104202, “Structure-Uptake Relationship Studies of Oxazolidinones in Gram-Negative ESKAPE Pathogens” (J Med Chem, 2022).

What was measured:
Format in all cases: functional, organism-based
[1] = system: Acinetobacter baumannii; assay: Antibacterial activity against recombinant OM pore producing Acinetobacter baumannii assessed as inhibition of bacterial growth
[2] = system: Acinetobacter baumannii; assay: Antibacterial activity against efflux pump lacking Acinetobacter baumannii assessed as inhibition of bacterial growth
[3] = system: Escherichia coli; assay: Antibacterial activity against efflux pump lacking/recombinant OM pore producing Escherichia coli assessed as inhibition of bacterial growth
[4] = system: Acinetobacter baumannii; assay: Antibacterial activity against efflux pump lacking/recombinant OM pore producing Acinetobacter baumannii assessed as inhibition of bacterial growth
[5] = system: Pseudomonas aeruginosa; assay: Antibacterial activity against efflux pump lacking/recombinant OM pore producing Pseudomonas aeruginosa assessed as inhibition of bacterial growth
[6] = system: Acinetobacter baumannii; assay: Antibacterial activity against wild type Acinetobacter baumannii assessed as inhibition of bacterial growth
[7] = system: Pseudomonas aeruginosa; assay: Antibacterial activity against efflux pump lacking Pseudomonas aeruginosa assessed as inhibition of bacterial growth
[8] = system: Escherichia coli; assay: Antibacterial activity against wild type Escherichia coli assessed as inhibition of bacterial growth
[9] = system: Pseudomonas aeruginosa; assay: Antibacterial activity against recombinant OM pore producing Pseudomonas aeruginosa assessed as inhibition of bacterial growth
[10] = system: Escherichia coli; assay: Antibacterial activity against efflux pump lacking Escherichia coli assessed as inhibition of bacterial growth
[11] = system: Pseudomonas aeruginosa; assay: Antibacterial activity against wild type Pseudomonas aeruginosa assessed as inhibition of bacterial growth
[12] = system: Escherichia coli; assay: Antibacterial activity against recombinant OM pore producing Escherichia coli assessed as inhibition of bacterial growth

COC(=O)c1ccccc1-c1ccc(N2C[C@H](CO)OC2=O)cc1F
IC50 [1]: > 100 µM
IC50 [2]: > 100 µM
IC50 [3]: 39.7 µM
IC50 [4]: > 100 µM
IC50 [5]: > 100 µM
IC50 [6]: > 100 µM
IC50 [7]: > 100 µM
IC50 [8]: 96 µM
IC50 [9]: > 100 µM
IC50 [10]: 64.6 µM
IC50 [11]: > 100 µM
IC50 [12]: 61.5 µM

COc1ccc(CNC(=O)OC(C)(C)C)cc1OCC#Cc1ccc(N2C[C@H](CO)OC2=O)cc1F
IC50 [1]: 42.4 µM
IC50 [2]: 72.2 µM
IC50 [3]: 44.4 µM
IC50 [4]: 28.7 µM
IC50 [5]: 46.9 µM
IC50 [6]: > 100 µM
IC50 [7]: > 100 µM
IC50 [8]: > 100 µM
IC50 [9]: > 100 µM
IC50 [10]: 42.9 µM
IC50 [11]: > 100 µM
IC50 [12]: > 100 µM

O=C1O[C@@H](CO)CN1c1ccc(C#CCO)c(F)c1
IC50 [1]: > 100 µM
IC50 [2]: > 100 µM
IC50 [3]: 43.6 µM
IC50 [4]: > 100 µM
IC50 [5]: > 100 µM
IC50 [6]: > 100 µM
IC50 [7]: > 100 µM
IC50 [8]: > 100 µM
IC50 [9]: > 100 µM
IC50 [10]: 84 µM
IC50 [11]: > 100 µM
IC50 [12]: > 100 µM

CC(=O)N1CCN(CC#Cc2ccc(N3C[C@H](CO)OC3=O)cc2F)CC1
IC50 [1]: > 100 µM
IC50 [2]: > 100 µM
IC50 [3]: > 100 µM
IC50 [4]: > 100 µM
IC50 [5]: > 100 µM
IC50 [6]: > 100 µM
IC50 [7]: > 100 µM
IC50 [8]: > 100 µM
IC50 [9]: > 100 µM
IC50 [10]: > 100 µM
IC50 [11]: > 100 µM
IC50 [12]: > 100 µM

O=C1O[C@@H](CO)CN1c1ccc(-c2ccc(-c3ccncc3)cc2)c(F)c1
IC50 [1]: > 100 µM
IC50 [2]: > 100 µM
IC50 [3]: 75.2 µM
IC50 [4]: > 100 µM
IC50 [5]: 1 µM
IC50 [6]: > 100 µM
IC50 [7]: 92.1 µM
IC50 [8]: > 100 µM
IC50 [9]: > 100 µM
IC50 [10]: > 100 µM
IC50 [11]: > 100 µM
IC50 [12]: > 100 µM

CC(C)(C)OC(=O)N[C@@H](Cc1cccc(-c2ccc(N3C[C@H](CO)OC3=O)cc2F)c1)C(=O)O
IC50 [1]: > 100 µM
IC50 [2]: > 100 µM
IC50 [3]: > 100 µM
IC50 [4]: > 100 µM
IC50 [5]: > 100 µM
IC50 [6]: > 100 µM
IC50 [7]: > 100 µM
IC50 [8]: > 100 µM
IC50 [9]: > 100 µM
IC50 [10]: > 100 µM
IC50 [11]: > 100 µM
IC50 [12]: > 100 µM

O=C1O[C@@H](CO)CN1c1ccc(-c2ccc(-c3cccnc3)cc2)c(F)c1
IC50 [1]: > 100 µM
IC50 [2]: > 100 µM
IC50 [3]: > 100 µM
IC50 [4]: > 100 µM
IC50 [5]: > 100 µM
IC50 [6]: > 100 µM
IC50 [7]: > 100 µM
IC50 [8]: > 100 µM
IC50 [9]: > 100 µM
IC50 [10]: > 100 µM
IC50 [11]: > 100 µM
IC50 [12]: > 100 µM

CCOC(=O)C(C)(C)CC#Cc1ccc(N2C[C@H](CO)OC2=O)cc1F
IC50 [1]: 60.3 µM
IC50 [2]: 44 µM
IC50 [3]: 21.9 µM
IC50 [4]: 30.3 µM
IC50 [5]: 30.1 µM
IC50 [6]: > 100 µM
IC50 [7]: > 100 µM
IC50 [8]: > 100 µM
IC50 [9]: > 100 µM
IC50 [10]: 17.8 µM
IC50 [11]: > 100 µM
IC50 [12]: 65.3 µM

CNC(=O)NCC#Cc1ccc(N2C[C@H](CO)OC2=O)cc1F
IC50 [1]: > 100 µM
IC50 [2]: > 100 µM
IC50 [3]: 11.2 µM
IC50 [4]: > 100 µM
IC50 [5]: > 100 µM
IC50 [6]: > 100 µM
IC50 [7]: > 100 µM
IC50 [8]: > 100 µM
IC50 [9]: > 100 µM
IC50 [10]: > 100 µM
IC50 [11]: > 100 µM
IC50 [12]: > 100 µM

C[n+]1ccccc1-c1ccc(N2C[C@H](CO)OC2=O)cc1F
IC50 [1]: > 100 µM
IC50 [2]: > 100 µM
IC50 [3]: 60.4 µM
IC50 [4]: 33.3 µM
IC50 [5]: 40.4 µM
IC50 [6]: > 100 µM
IC50 [7]: > 100 µM
IC50 [8]: > 100 µM
IC50 [9]: > 100 µM
IC50 [10]: 72.3 µM
IC50 [11]: > 100 µM
IC50 [12]: > 100 µM

O=C1O[C@@H](CO)CN1c1ccc(-c2ccc(O)cc2)c(F)c1
IC50 [1]: 12.9 µM
IC50 [2]: 8.4 µM
IC50 [3]: 2.3 µM
IC50 [4]: 7.3 µM
IC50 [5]: 5.8 µM
IC50 [6]: > 100 µM
IC50 [7]: 8.4 µM
IC50 [8]: > 100 µM
IC50 [9]: 27.7 µM
IC50 [10]: 2 µM
IC50 [11]: > 100 µM
IC50 [12]: 22.1 µM
